From patent publication US12286440B2, “Penam derivative or salt thereof, pharmaceutical composition, and applications thereof” (priority 2018, dated 2025)
Values after ≈ are worked out from the molar mass of the structure shown.

How the values were obtained:
Assay in all cases: Antibacterial activity evaluation test, MIC by CLSI broth microdilution
Format in all cases: cell-based
Conditions in all cases: cation-adjusted Mueller Hinton medium, 35° C., 16 to 20 hours
[1] = system: AmpC-derepressed Pseudomonas aeruginosa mutant strain (S-3028)
Description: (§1) The minimum inhibitory concentration (MIC) was measured according to the Clinical and Laboratory Standards Institute (CLSI) standard method by using the following broth microdilution method.
(§2) As bacteria, a Pseudomonas aeruginosa strain ATCC27853, an AmpC-derepressed Pseudomonas aeruginosa mutant strain (S-3028), an IMP-1-containing Pseudomonas aeruginosa strain (S-2838), a VIM-2-containing Pseudomonas aeruginosa strain (S-3779), a GES-19 and GES-20-containing Pseudomonas aeruginosa strain (S-3759), a CTX-M-15-containing Escherichia coli strain (TK-1747), a KPC-2-containing Klebsiella pneumoniae strain (Y-995), an OXA-48-containing Klebsiella pneumoniae strain (Y-1062), and an NDM-1-containing Klebsiella pneumoniae strain (Y-1007) were used. The test bacterial cells that had been cultured overnight on a Mueller Hinton agar medium were scraped off, suspended at a density equivalent to 0.5 McFarland standard, and diluted 10-fold, thereby obtaining an inoculum. A cation-adjusted Mueller Hinton medium containing a test compound was inoculated with 0.005 mL of the inoculum, and the cells were cultured at 35° C. for 16 to 20 hours. The minimum drug concentration at which the growth of bacteria was not visually observed was defined as MIC […].
(§3) An antibacterial activity evaluation test was performed in the same manner as in Test Example 1.

[2] = system: CTX-M-15-containing Escherichia coli strain (TK-1747)
Description: as §1, §2, §3

[3] = system: GES-19 and GES-20-containing Pseudomonas aeruginosa strain (S-3759)
Description: as §1, §2, §3

[4] = system: IMP-1-containing Pseudomonas aeruginosa strain (S-2838)
Description: as §1, §2, §3

[5] = system: KPC-2-containing Klebsiella pneumoniae strain (Y-995)
Description: as §1, §2, §3

[6] = system: NDM-1-containing Klebsiella pneumoniae strain (Y-1007)
Description: as §1, §2, §3

[7] = system: OXA-48-containing Klebsiella pneumoniae strain (Y-1062)
Description: as §1, §2, §3

[8] = system: Pseudomonas aeruginosa strain ATCC27853
Description: as §1, §2, §3

[9] = system: VIM-2-containing Pseudomonas aeruginosa strain (S-3779)
Description: as §1, §2, §3

For `CC(C)(O/N=C(\C(=O)N[C@@H]1C(=O)N2C[C@@](C(=O)O)(N3CCN(NC(=O)C(=O)NCCNC(=O)c4ccc(O)c(O)c4Cl)C3=O)S[C@H]12)c1csc(N)n1)C(=O)O` [Example 68, (3R,5R,6R)-6-((Z)-2-(2-aminothiazol-4-yl)-2-(((2-carboxypropan-2-yl)oxy)imino)acetamido)-3-(3-(2-((2-(2-chloro-3,4-dihydroxybenzamido)ethyl)amino)-2-oxoacetamido)-2-oxoimidazolidin-1-yl)-7-oxo-4-thia-1-azabicyclo[3.2.0]heptane-3-carboxylate], the MIC, Pseudomonas aeruginosa S-3028 [1] was 0.25 µg/mL (≈ 0.302 µM), the MIC, Escherichia coli TK-1747 [2] was 1 µg/mL (≈ 1.21 µM) and the MIC, Pseudomonas aeruginosa S3759 [3] was 4 µg/mL (≈ 4.84 µM). It also gave an MIC, Pseudomonas aeruginosa S-2838 [4] of 1 µg/mL (≈ 1.21 µM), an MIC, Klebsiella pneumoniae Y-995 [5] of 0.5 µg/mL (≈ 0.604 µM) and an MIC, Klebsiella pneumoniae Y-1007 [6] of under 0.06 µg/mL. The MIC, Klebsiella pneumoniae Y-1062 [7] was 1 µg/mL (≈ 1.21 µM), the MIC, Pseudomonas aeruginosa ATCC 27853 [8] was 1 µg/mL (≈ 1.21 µM) and the MIC, Pseudomonas aeruginosa S-3779 [9] was 2 µg/mL (≈ 2.42 µM).
